Assay results taken from patent US12583851B2, “Heteroaryl-substituted pyrazine derivatives as pesticides” (Elanco Animal Health GmbH, priority 2019, dated 2026).

Tests used:
Assay type in all cases: in vivo
[1] = test system: Rhipicephalus (Boophilus) microplus larvae (strain Parkhurst, resistant against synthetic pyrethroids); assay: Rhipicephalus (Boophilus) microplus in-vitro contact test, larval cattle tick; conditions: after 48 hours, read-out: efficacy (larvae dead or moribund); for pest or weed control at 1 µg/cm2, 100 g/ha: 1 μg/cm^2 (=100 g/ha); for pest or weed control at 5 µg/cm2, 500 g/ha: 5 μg/cm^2 (=500 g/ha)
Protocol: Rhipicephalus (Boophilus) microplus—In-Vitro Contact Tests Larval Cattle Tick (Strain Parkhurst, Resistant Against Synthetic Pyrethroids)
9 mg compound is solved in 1 mL acetone and diluted with acetone to the desired concentration. […] the test solution is filled in 25 mL glass test tubes and homogeneously distributed on the inner walls by rotation and tilting on a shaking device (2 h at 30 rpm). With a compound concentration of 900 ppm, an inner surface of 44.7 cm^2 and a homogeneous distribution, a dose of 5 μg/cm^2 is achieved.
After the solvent has evaporated, each test tube is filled with 20-50 cattle tick larvae (Rhipicephalus microplus), closed with a perforated lid and incubated in a horizontal position at 85% relative humidity and 27° C. in an incubator. After 48 hours efficacy is determined. The larvae are patted on the ground of the tubes and negative geotactic behaviour is recorded.
An efficacy of 100% means all larvae are dead or moribund; 0% means no larvae are dead or moribund.

[2] = test system: larvae of the banded cucumber beetle (Diabrotica balteata); assay: Diabrotica balteata spray test; conditions: 168 h, after 7 days, read-out: efficacy (seedling growth); for pest or weed control at 32 µg/disc, 100 g/ha: 100 g/ha (=32 μg/well); for pest or weed control at 6.4 µg/disc, 20 g/ha: 20 g/ha (=6.4 μg/well)
Protocol: Diabrotica balteata—Spray Test
Solvent: 78.0 parts by weight of acetone • • 1.5 parts by weight of dimethylformamide
(§1) Emulsifier: alkylarylpolyglycol ether
(§2) To produce a suitable preparation of active compound, 1 part by weight of active compound is mixed with the stated amount of solvent, and the concentrate is diluted with water, containing an emulsifier concentration of 1000 ppm, to the desired concentration. Further test concentrations are prepared by dilution with emulsifier containing water.
Soaked wheat seeds (Triticum aestivum) are placed in a multiple well plate filled with agar and some water and are incubated for 1 day to germinate (5 seeds per well). The germinated wheat seeds are sprayed with a test solution containing the desired concentration of the active ingredient. Afterwards each unit is infected with 10-20 larvae of the banded cucumber beetle (Diabrotica balteata).
After 7 days efficacy in % is determined. 100% means all the seedlings have grown up like in the untreated, uninfected control; 0% means none of the seedlings have grown.

[3] = test system: fall armyworm larvae (Spodoptera frugiperda); assay: Spodoptera frugiperda spray test; conditions: 168 h, maize leaf sections, after 7 days
Protocol: Spodoptera fruaiperda—Spray Test
Solvent: 78.0 parts by weight acetone • 1.5 parts by weight dimethylformamide
as §1
as §2, with “solvents” for “solvent,”, “and” for “and the concentrate”
Maize (Zea mays) leaf sections are sprayed with a preparation of the active ingredient of the desired concentration. Once dry, the leaf sections are infested with fall armyworm larvae (Spodoptera frugiperda).
After 7 days mortality in % is determined. 100% means all caterpillars have been killed and 0% means none of the caterpillars have been killed.

CC(NC(=O)c1cc(Cl)cc(C(F)(F)F)c1)c1nccnc1-c1ccc(C(F)(F)F)cn1 (racemic) [Example I-46, (rac)-3-Chloro-5-(trifluoromethyl)-N-[1-{3-[5-(trifluoromethyl)pyridin-2-yl]pyrazin-2-yl}ethyl]benzamide]
100%: pest or weed control at 1 µg/cm2, 100 g/ha [1] | pest or weed control at 5 µg/cm2, 500 g/ha [1] | pest or weed control at 32 µg/disc, 100 g/ha [2] | mortality at 100 g/ha [3]

CC(NC(=O)c1cc(C(F)(F)F)cc(C(F)(F)F)c1)c1nccnc1-c1ncc(C(=O)N(C)CC2CC2)s1 (racemic) [Example I-51, (rac)-2-(3-{1-[3,5-Bis(trifluoromethyl)benzamido]ethyl}pyrazin-2-yl)-N-(cyclopropylmethyl)-N-methyl-1,3-thiazole-5-carboxamide]
90%: pest or weed control at 1 µg/cm2, 100 g/ha [1] | pest or weed control at 5 µg/cm2, 500 g/ha [1]
100%: pest or weed control at 6.4 µg/disc, 20 g/ha [2] | pest or weed control at 32 µg/disc, 100 g/ha [2] | mortality at 100 g/ha [3]

CC(NC(=O)c1cc(C(F)(F)F)cc(C(F)(F)F)c1)c1nccnc1-c1ncc(C(=O)N(C)C)s1 (racemic) [Example I-69, (rac)-2-(3-{1-[3,5-Bis(trifluoromethyl)benzamido]ethyl}pyrazin-2-yl)-N,N-dimethyl-1,3-thiazole-5-carboxamide]
100%: pest or weed control at 1 µg/cm2, 100 g/ha [1] | pest or weed control at 5 µg/cm2, 500 g/ha [1] | pest or weed control at 6.4 µg/disc, 20 g/ha [2] | pest or weed control at 32 µg/disc, 100 g/ha [2] | mortality at 100 g/ha [3]

CC(NC(=O)c1cc(Br)cc(OC(F)(F)F)c1)c1nccnc1-c1ncc(C(=O)N(C)CC#N)s1 (racemic) [Example I-75, (rac)-2-(3-{1-[3-Bromo-5-(trifluoromethoxy)benzamido]ethyl}pyrazin-2-yl)-N-(cyanomethyl)-N-methyl-1,3-thiazole-5-carboxamide]
100%: pest or weed control at 32 µg/disc, 100 g/ha [2] | mortality at 100 g/ha [3]
90%: pest or weed control at 1 µg/cm2, 100 g/ha [1] | pest or weed control at 5 µg/cm2, 500 g/ha [1]

CC(NC(=O)c1cc(Br)cc(OC(F)(F)F)c1)c1nccnc1-c1ncc(C(=O)N(C)CC2CC2)s1 (racemic) [Example I-76, (rac)-2-(3-{1-[3-Bromo-5-(trifluoromethoxy)benzamido]ethyl}pyrazin-2-yl)-N-(cyclopropylmethyl)-N-methyl-1,3-thiazole-5-carboxamide]
100%: pest or weed control at 1 µg/cm2, 100 g/ha [1] | pest or weed control at 5 µg/cm2, 500 g/ha [1] | pest or weed control at 6.4 µg/disc, 20 g/ha [2] | pest or weed control at 32 µg/disc, 100 g/ha [2] | mortality at 100 g/ha [3]

CCN(C)C(=O)c1cnn(-c2nccnc2C(C)NC(=O)c2cc(C(F)(F)F)cc(C(F)(F)F)c2)c1 (racemic) [Example I-89, (rac)-1-(3-{1-[3,5-Bis(trifluoromethyl)benzamido]ethyl}pyrazin-2-yl)-N-ethyl-N-methyl-1H-pyrazole-4-carboxamide]
100%: pest or weed control at 1 µg/cm2, 100 g/ha [1] | pest or weed control at 5 µg/cm2, 500 g/ha [1] | pest or weed control at 6.4 µg/disc, 20 g/ha [2] | pest or weed control at 32 µg/disc, 100 g/ha [2] | mortality at 100 g/ha [3]

CC(NC(=O)c1cc(C(F)(F)F)cc(C(F)(F)F)c1)c1nccnc1-n1cc(C(=O)N2CCOCC2)cn1 (racemic) [Example I-90, N-[(rac)-1-{3-[4-(Morpholine-4-carbonyl)-1H-pyrazol-1-yl]pyrazin-2-yl}ethyl]-3,5-bis(trifluoromethyl)benzamide]
100%: pest or weed control at 1 µg/cm2, 100 g/ha [1] | pest or weed control at 5 µg/cm2, 500 g/ha [1] | pest or weed control at 32 µg/disc, 100 g/ha [2] | mortality at 100 g/ha [3]

CC(NC(=O)c1cc(C(F)(F)F)cc(C(F)(F)F)c1)c1nccnc1-n1cc(C(F)(F)F)cn1 (racemic) [Example I-92, (rac)-3,5-Bis(trifluoromethyl)-N-[1-{3-[4-(trifluoromethyl)-1H-pyrazol-1-yl]pyrazin-2-yl}ethyl]benzamide]
100%: pest or weed control at 1 µg/cm2, 100 g/ha [1] | pest or weed control at 5 µg/cm2, 500 g/ha [1] | pest or weed control at 6.4 µg/disc, 20 g/ha [2] | pest or weed control at 32 µg/disc, 100 g/ha [2] | mortality at 100 g/ha [3]
